Reference: ChEMBL document CHEMBL3886889, “Substituted [1,2,4]triazolo[4,3-a]pyrazines as selective NK-3 receptor antagonists” (2016)

How the values were obtained:
[1] = target: T1, Neuromedin-K receptor (Homo sapiens, UniProt P29371); experiment: Functional Assay: Chinese Hamster Ovary recombinant cells expressing the human NK-3 receptor and a construct that encodes the photoprotein apoaequorin were used for this assay. The antagonist activity of compounds of the invention is measured following pre-incubation (3 minutes) of the compound (at various concentrations) with the cells, followed by addition of the reference agonist (NKA) at a final concentration equivalent to the EC80 (3 nM) and recording of emitted light (FDSS 6000 Hamamatsu) over the subsequent 90-second period. The intensity of the emitted light is integrated using the reader software. Compound antagonist activity is measured based on the concentration-dependent inhibition of the luminescence response to the addition of Neurokinin A.
T1 sequence (P29371 whole entry): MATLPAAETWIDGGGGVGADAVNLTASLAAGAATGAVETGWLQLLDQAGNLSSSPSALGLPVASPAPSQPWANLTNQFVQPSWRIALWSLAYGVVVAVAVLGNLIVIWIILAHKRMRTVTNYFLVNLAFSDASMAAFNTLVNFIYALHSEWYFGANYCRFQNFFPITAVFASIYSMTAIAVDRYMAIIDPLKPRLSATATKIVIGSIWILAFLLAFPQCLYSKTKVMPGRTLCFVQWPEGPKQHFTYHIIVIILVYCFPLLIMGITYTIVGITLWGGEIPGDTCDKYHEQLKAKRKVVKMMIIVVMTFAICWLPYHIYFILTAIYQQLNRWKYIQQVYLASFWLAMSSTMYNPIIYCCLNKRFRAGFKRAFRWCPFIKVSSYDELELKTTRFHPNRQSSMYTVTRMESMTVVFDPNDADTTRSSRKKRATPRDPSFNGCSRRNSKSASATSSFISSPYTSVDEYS

[2] = target: T1, Neuromedin-K receptor; experiment: Competitive Binding Assay: The affinity of compounds of the invention for the human NK-3 receptor was determined by measuring the ability of compounds of the invention to competitively and reversibly displace a well-characterized NK-3 radioligand in a concentration-dependent manner.3H-SB222200 Binding Competition Assay with Human NK-3 ReceptorThe ability of compounds of the invention to inhibit the binding of the NK-3 receptor selective antagonist 3H-SB222200 was assessed by an in vitro radioligand binding assay. Membranes were prepared from Chinese hamster ovary recombinant cells stably expressing the human NK-3 receptor. The membranes were incubated with 5 nM 3H-SB222200 (ARC) in a HEPES 25 mM/NaCl 0.1M/CaCl2 1 mM/MgCl2 5 mM/BSA 0.5%/Saponin 10 μg/ml buffer at pH 7.4 and various concentrations of compounds of the invention. The amount of 3H-SB222200 bound to the receptor was determined after filtration by the quantification of membrane associated radioactivity using the TopCount-NXT reader (Packard).

| IC50 [1] | Ki [2] | SMILES |
| --- | --- | --- |
| 170 nM | 59 nM | Cc1nsc(-c2nnc3n2CCN(C(=O)c2ccc(F)cc2)C3CCO)n1 (racemic) |
| 220 nM | 150 nM | CCC1c2nnc(-c3nc(C)ns3)n2CCN1C(=O)c1ccc(F)cc1 (racemic) |
